In patent US20230407243A1, “GENETIC PLATFORM TO INVESTIGATE THE FUNCTIONS OF BACTERIAL DRUG EFFLUX PUMPS” (priority 2022, published 2023):

Assays:
Assay type in all cases: cell-based, Escherichia coli
EKO-35 araC::acrBD408A = experiment: MIC susceptibility profiling, efflux platform
Method: (§1) Single colonies were used to inoculate 3 mL of LB followed by incubation at 37° C. for 18 h with aeration at 220 rpm. The bacterial cells were harvested by centrifugation and resuspended in phosphate buffered saline (PBS) ([pH 7.4], 137 mM NaCl (Bioshop), 2.7 mM KCl (Bioshop), 10 mM Na2PO4 (Bioshop) and 1.8 mM K2PO4) to an OD600 nm˜1.0, followed by 1/2000 dilution into MHB II.
(§2) To a 384-well microtiter plate (Corning, untreated polystyrene), 500 nL of compound was dispensed, in duplicate, and serially titrated 2-fold using an Echo 550 acoustic liquid dispenser (Labcyte Inc.). […] As a solvent control, 500 nL of DMSO was applied to wells that contained no compound. Using a multichannel pipette, 50 μL of the prepared bacterial inoculum was applied to each well. To enable background correction post-incubation, the OD600 nm was measured (Biotek Synergy Neo2 microplate reader) prior to incubation. The plates were incubated at 37° C. with aeration at 900 rpm for 18 h. The plates were equilibrated to room temperature and the OD600 nm measured using a BioTek Synergy Neo2 microplate reader. Data was analyzed in both Prism (GraphPad, Version 9.2.0) and Microsoft Excel (Version 16.53). Raw data were input into Microsoft Excel and the pre-incubation OD600 nm measurements were subtracted from the post-incubation OD600 nm measurements. These corrected measurements were input into Prism 9 as a grouped analysis. […] All other MIC values were adjusted accordingly and visualized using the single-color scale grouped heat map function. Identification of compound chemical properties was achieved using DataWarrior (Version 5.5.0). Using PubChem, the SMILES chemical notation for each compound was obtained and compiled in Microsoft Excel. The resulting spreadsheet was input into DataWarrior and properties were calculated from the compound chemical structures.

EKO-35 araC::acrB = experiment: MIC susceptibility profiling, efflux platform
Method: as §1, §2

EKO-35 araC::acrD = experiment: MIC susceptibility profiling, efflux platform
Method: as §1, §2

EKO-35 araC::acrEF = experiment: MIC susceptibility profiling, efflux platform
Method: as §1, §2

EKO-35 araC::emrAB = experiment: MIC susceptibility profiling, efflux platform
Method: as §1, §2

EKO-35 araC::emrKY = experiment: MIC susceptibility profiling, efflux platform
Method: as §1, §2

EKO-35 araC::macAB = experiment: MIC susceptibility profiling, efflux platform
Method: as §1, §2

EKO-35 araC::mdtBC = experiment: MIC susceptibility profiling, efflux platform
Method: as §1, §2

EKO-35 araC::mdtEF = experiment: MIC susceptibility profiling, efflux platform
Method: as §1, §2

[1] = test system: EKO-35 araC::mexCD (MexCD from P. aeruginosa); experiment: MIC susceptibility profiling, efflux platform
Method: as §1, §2

wild-type (WT) K-12-Pore = experiment: microbe, parasite or virus in culture; conditions: technical duplicate
Method: (§3) For genomic integration of the pore, the fhuA ΔC/Δ4L gene and the adjacent gentamicin resistance cassette were amplified using a high-fidelity polymerase and the fhuA_40_Up/gImS_3680_Low primers (Table 4). Integration of the pore gene was performed as described above. The pore gene was introduced into the intergenic region between the glmS and pstS genes, with gene expression under the control of a constitutive promoter (Kearse, M. et al., 2012). Genomic integrations were verified using PCR (Primers: pstS_520_Up/glmS_3680_Low, Table 4). Successful integrations were transformed with pCP20 to remove the gentamicin resistance cassette as previously described. Activity of the pore was confirmed through susceptibility testing with the large antibiotic vancomycin prior to phenotypic profiling and further susceptibility testing.
as §1, §2

ΔtolC-Pore = experiment: microbe, parasite or virus in culture; conditions: technical duplicate
Method: as §3, §1, §2

EKO-35-Pore = experiment: MIC susceptibility profiling, porinated strain
Method: as §3, §1, §2

EKO-35 araC::acrB Pore = experiment: MIC susceptibility profiling, porinated efflux platform
Method: as §3, §1, §2

[2] = test system: EKO-35 araC::acrBD408A Pore; experiment: as above
Method: as §3, §1, §2

EKO-35 araC::acrD Pore = experiment: as above
Method: as §3, §1, §2

EKO-35 araC::acrEF Pore = experiment: as above
Method: as §3, §1, §2

EKO-35 araC::emrAB Pore = experiment: as above
Method: as §3, §1, §2

[3] = Table 13B, non-porinated, technical duplicate
[4] = Table 13A, non-porinated, technical duplicate
[5] = Table 14A, porinated, technical duplicate

O=C(Nc1ccc(C(F)(F)F)cc1)Nc1ccc(C(F)(F)F)cc1 [compound 7]
Fold change of MICs (EKO-35 araC::acrBD408A; EKO-35 araC::acrBD408A compared to EKO-35): 1 fold | Minimum Inhibitory Concentration, EKO-35 araC::acrBD408A (EKO-35 araC::acrBD408A; [3]): 320 µg/mL | Fold change of MICs (EKO-35 araC::acrB; EKO-35 araC::acrB compared to EKO-35): 1 fold | Minimum Inhibitory Concentration, EKO-35 araC::acrB (EKO-35 araC::acrB; [4]): 320 µg/mL | Fold change of MICs (EKO-35 araC::acrD; EKO-35 araC::acrD compared to EKO-35): 1 fold | Minimum Inhibitory Concentration, EKO-35 araC::acrD (EKO-35 araC::acrD; [4]): 320 µg/mL | Fold change of MICs (EKO-35 araC::acrEF; EKO-35 araC::acrEF compared to EKO-35): 1 fold | Minimum Inhibitory Concentration, EKO-35 araC::acrEF (EKO-35 araC::acrEF; [4]): 320 µg/mL | Fold change of MICs (EKO-35 araC::emrAB; EKO-35 araC::emrAB compared to EKO-35): 1 fold | Minimum Inhibitory Concentration, EKO-35 araC::emrAB (EKO-35 araC::emrAB; [3]): 320 µg/mL | Fold change of MICs (EKO-35 araC::emrKY; EKO-35 araC::emrKY compared to EKO-35): 1 fold | Minimum Inhibitory Concentration, EKO-35 araC::emrKY (EKO-35 araC::emrKY; [3]): 320 µg/mL | Fold change of MICs (EKO-35 araC::macAB; EKO-35 araC::macAB compared to EKO-35): 1 fold | Minimum Inhibitory Concentration, EKO-35 araC::macAB (EKO-35 araC::macAB; [3]): 320 µg/mL | Fold change of MICs (EKO-35 araC::mdtBC; EKO-35 araC::mdtBC compared to EKO-35): 1 fold | Minimum Inhibitory Concentration, EKO-35 araC::mdtBC (EKO-35 araC::mdtBC; [3]): 320 µg/mL | Fold change of MICs (EKO-35 araC::mdtEF; EKO-35 araC::mdtEF compared to EKO-35): 1 fold | Minimum Inhibitory Concentration, EKO-35 araC::mdtEF (EKO-35 araC::mdtEF; [4]): 320 µg/mL | Fold change of MICs ([1]; EKO-35 araC::mexCD compared to EKO-35): 1 fold | Minimum Inhibitory Concentration, EKO-35 araC::mexCD [1, 3]: 320 µg/mL | Minimum inhibitory concentration (MIC), Pore K-12 (wild-type (WT) K-12-Pore; Table 10, with pore): 320 µg/mL | Minimum inhibitory concentration, K-12 (WT)-Pore (wild-type (WT) K-12-Pore; Table 14A, porinated): 320 µg/mL | Minimum inhibitory concentration (MIC), Pore ΔtolC (ΔtolC-Pore; Table 10, with pore): 0.313 µg/mL | Minimum inhibitory concentration, ΔtolC-Pore (ΔtolC-Pore; Table 14A, porinated): 0.313 µg/mL | Fold changes of MICs (EKO-35-Pore; EKO-35-Pore compared to EKO-35-Pore (reference)): 1 fold | Minimum inhibitory concentration (MIC), Pore EKO-35 (EKO-35-Pore; Table 10, with pore, technical duplicate): 320 µg/mL | Minimum inhibitory concentration, EKO-35-Pore (EKO-35-Pore; [5]): 320 µg/mL | Fold changes of MICs (EKO-35 araC::acrB Pore; EKO-35 araC::acr-B Pore compared to EKO-35-Pore): 1 fold | Minimum inhibitory concentration, EKO-35 araC::acrB Pore (EKO-35 araC::acrB Pore; [5]): 320 µg/mL | Fold changes of MICs ([2]; EKO-35 araC::acrBD408A Pore compared to EKO-35-Pore): 1 fold | Minimum inhibitory concentration ([2]; EKO-35 araC::acrBD408A Pore, technical duplicate): 320 µg/mL | Fold changes of MICs (EKO-35 araC::acrD Pore; EKO-35 araC::acrD Pore compared to EKO-35-Pore): 1 fold | Minimum inhibitory concentration, EKO-35 araC::acrD Pore (EKO-35 araC::acrD Pore; [5]): 320 µg/mL | Fold changes of MICs (EKO-35 araC::acrEF Pore; EKO-35 araC::acrEF Pore compared to EKO-35-Pore): 1 fold | Minimum inhibitory concentration, EKO-35 araC::acrEF Pore (EKO-35 araC::acrEF Pore; [5]): 320 µg/mL | Fold changes of MICs (EKO-35 araC::emrAB Pore; EKO-35 araC::emrAB Pore compared to EKO-35-Pore): 1 fold | Minimum inhibitory concentration (EKO-35 araC::emrAB Pore; EKO-35 araC::emrAB Pore, technical duplicate): 320 µg/mL
